One compound from patent US10596169B2, “Cancer treatment with combination of plinabulin and taxane” (BeyondSpring Inc., priority 2013, dated 2020) can be followed below.

How the values of data set [1] were obtained:
(§1) Female nude mice (Hsd: Athymic Nude-Foxn1^nu) between 5 and 6 weeks of age weighing approximately 20 grams were obtained from Harlan, Inc. (Madison, Wis.). MV522 is a conventional human NSC metastatic lung tumor cell line (U.S. Pat. No. 7,700,615 or 7,629,380). Animals were injected subcutaneously (SC) with approximately 1×10^7 MV522 cells harvested from tissue culture. When tumors grew to approximately 105 cubic millimeters (mm^3) in size (3 days following implantation), animals were pair-matched by tumor size into treatment and control groups; each treatment group contained eight mice. Animals were ear-tagged and followed individually throughout the experiment.
(§2) Initial doses were administered on Day 1 following pair-matching. The experiment was carried out as a tumor growth inhibition (TGI) and tumor growth delay (TGD) study. Group 1 endpoint was when tumor volume reached 1.2 cm^3 (TGI) and the treated groups endpoint was when each individual animal's tumor volume reached 1.5 cm^3 (TGD). […] To serve as negative controls, NPI-2358 vehicle and docetaxel vehicle were injected IP on a 2×WKLY×3 schedule and IV on a Q2D×3 schedule, respectively. Docetaxel was administered by intravenous (IV) injection via tail vein at 15 mg/kg once every other day for three treatments (Q2D×3) or at 25 mg/kg on a Q7D×3 schedule (every 7 day for three treatment). Docetaxel and docetaxel vehicle were administered two hours prior to NPI-2358 vehicle and NPI-2358, respectively, in Groups 7-9 and 12-14. For Groups 10, 11, 15, and 16, NPI-2358 was given two hours prior to docetaxel.
Individual and group mean weights ±SD and percent weight change were recorded twice weekly until study completion beginning Day 1. Group weights on Day 42 and weight nadir values are reported.
Animals were observed twice weekly for general moribundity and daily for mortality.

The subject of data set [2] is MV522 human non-small cell lung tumor xenograph model. The data set is described as follows: Example 1: MV522 xenograft, NPI-2358 single agent and with docetaxel (TGI/TGD). It is filed as in vivo, athymic nu/nu mice. As for the experimental part:
In vivo evaluation of plinabulin (NPI-2358) as a single agent and in combination with docetaxel in the MV522 human non-small cell lung tumor xenograph model in athymic nu/nu mice
The objective of the example was to determine potential additive or synergistic effects of plinabulin in combination with docetaxel in the MV522 model by exploring the scheduling of the drug combination explored by administering one of the agents 2 hours after the first drug was given. Significant endpoints for this experiment included mean tumor growth inhibition (TGI) or regression, tumor growth delay (TGD) in large tumor, weight loss, and mortality.
as §1, §2
Mice were weighed and caliper tumor measurements taken. Tumor growth inhibition (TGI) values were calculated for each group containing treated animals using the formula below: […]
Animals experiencing complete tumor responses or animals experiencing technical or drug-related deaths were censored from final TGI calculations; however animals experiencing partial tumor responses were included in the final TGI calculations. […] TGI values for each treatment group are reported at study completion; these calculations are based on the final study day.
This arm of the study was ended on Day 74 at the sponsor's request. […] Upon TGD study completion, a Median Day of Sacrifice (MDS) was calculated for the control (C) and each treatment (T) group and used to determine tumor growth delay (T-C) using the following equations: MDS=Median [ΣIDS] T−C=MDSTreated−MDSControl
Where IDS (Individual Day of Sacrifice) is the day when each animal reached its tumor volume endpoint (1.5 cm^3); only animals reaching this endpoint were included in TGD calculations. Gross or net log10 cell kill for each treatment group was determined using the following equations: […]

Where [3] appears, read: G5: NPI-2358 3.75 mg/kg IP 2xWKLYx3.

On to `CC(C)(C)c1[nH]cnc1/C=c1\[nH]c(=O)/c(=C/c2ccccc2)[nH]c1=O` [NPI-2358], for which, in data set [1] (setting [3]), the “Final weight (Day 25) % change” value was “+15%”, the “Final weight (Day 25) mean ± SD” value turned out to be 23 ± 1 g, the “Weight nadir % change” value amounted to 0% and the Weight nadir day was determined as 1. Besides, the Animal weight loss result in data set [1] (single agent groups, Example 1, given doses and schedule) is recorded as “No significant animal weight loss”. Further, in data set [2] (setting [3]), the “#CR (Day 25)” value is listed as 0/0, the “#CR (TGD study)” value was 0/0, the “#LTS (long-term survivors)” value stood at 0 and the “#PR (Day 25)” value is recorded as 0/0. Further, in data set [2] (setting [3]), the “#PR (TGD study)” value is given as 0/0, the “% TGI” value came to 2%, the “Final tumor volume (Day 25) mean ± SEM” value was 1347 ± 82 mm^3 and the Log10 cell kill turned out to be 0.0. Besides, the “T-C (tumor growth delay)” value in data set [2] (setting [3]) is 0. Moreover, in data set [2] (G5: NPI-2358 3.75 mg/kg IP 2xWKLYx3, endpoint 1.5 cm^3), the “MDS day ± SD” value was found to be 29 ± 2 days. For the same compound, in data set [2] (single agent, Example 1), the “Tumor volume / tumor burden compared to vehicle control” value was “slight decrease in tumor volume”.
